From EP0606804B1, “Marker for neurotensin receptor” (MARTINEX R & D INC., priority 1992, dated 2001) come the findings set out here.

Where no end group is shown, it is not given here. FTC = fluorescein thiocarbamyl

Series [1] in a line: Solubility. It is filed as physicochemical. Conditions: distilled water or aqueous buffer.
A short description of series [2]: Toxicity (statement, no method given).
Series [3] in a line: Stability / shelf life. It is filed as physicochemical. Conditions: protected from light and maintained at 4°C.
Series [4] has as its target T1, neurotensin receptor on purified brain membranes from adult male mice (mouse, UniProt O88319 1-424).
T1 construct: whole, on cells; This is the native receptor in a brain membrane preparation, not on intact cells; also called mouse brain membranes
In words: competition with 0.1 nM 125I-Tyr3-neurotensin on mouse brain membranes, filtration, 20 min at 22 C.

T1 sequence (O88319 whole entry): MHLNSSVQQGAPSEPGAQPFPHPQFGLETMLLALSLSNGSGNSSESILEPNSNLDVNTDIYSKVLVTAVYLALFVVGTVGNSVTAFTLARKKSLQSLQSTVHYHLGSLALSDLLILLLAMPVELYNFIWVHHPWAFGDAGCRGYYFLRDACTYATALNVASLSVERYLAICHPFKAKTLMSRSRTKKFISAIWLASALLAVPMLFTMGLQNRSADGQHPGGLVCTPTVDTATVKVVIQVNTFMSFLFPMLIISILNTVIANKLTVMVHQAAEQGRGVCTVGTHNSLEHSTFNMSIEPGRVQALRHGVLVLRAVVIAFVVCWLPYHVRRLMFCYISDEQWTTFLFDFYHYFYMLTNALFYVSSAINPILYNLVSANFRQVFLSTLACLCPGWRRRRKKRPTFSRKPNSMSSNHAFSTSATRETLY

As for `CC[C@H](C)[C@H](NC(=O)[C@H](Cc1ccc(O)cc1)NC(=O)[C@@H]1CCCN1C(=O)[C@H](CCCNC(=N)N)NC(=O)[C@H](CCCNC(=N)N)NC(=O)[C@@H]1CCCN1C(=O)[C@H](CCCCN)NC(=O)[C@H](CC(N)=O)NC(=O)[C@H](CCC(=O)O)NC(=O)[C@H](Cc1ccc(O)cc1)NC(=O)[C@H](CC(C)C)NC(=O)[C@H](CCC(=O)O)NC(=S)Nc1ccc2c(c1)C(=O)OC21c2ccc(O)cc2Oc2cc(O)ccc21)C(=O)N[C@@H](CC(C)C)C(=O)O` [N-FTC-[Glu^1]NT, N-fluoresceyl thiocarbamyl-[Glu^1] neurotensin], the solubility entry in series [1] is reported as “freely soluble”. The toxicity in series [2] was determined as 100% non-toxic. In series [3], the stability result was “stable”.

B1: N-fluoresceyl thiocarbamyl-[Glu1] neurotensin (peptide)
peptide: {FTC}-ELYENKPRRPYIL
notes: Synthetic 13-residue neurotensin analogue with Glu in place of pGlu at position 1, carrying one fluorescein per peptide; Molecular weight 2080; also called N-FTC-[Glu1]NT; FTC-[Glu1]NT
The molecule B1 came in with an IC50 in series [4] of 0.55 nM.

A word on the IC50: it is the midpoint of a concentration-inhibition curve. A low value points to higher potency.
